Test results reported in US20210387966A1, “2-AMINO-N-HETEROARYL-NICOTINAMIDES AS NAV1.8 INHIBITORS” (Merck Sharp & Dohme Corp., priority 2018, published 2021).

target: T1, human Nav1.8 channels (Homo sapiens, UniProt Q9Y5Y9); assay: Nav1.8 Qube automated patch-clamp assay; assay type: cell-based; details: human Nav1.8 stably expressed in HEK 293 cells; whole-cell voltage clamp, room temperature; resting or inactivated state not specified; read-out: IC50 values (nM) for Examples in the Nav1.8 Qube Assay
T1 construct: expressed in transfected cells
Protocol: Compounds were tested on human Nav1.8 and Nav1.5 channels stably expressed in human embryo kidney (HEK) 293 cells. Sodium current measurements on Qube® were conducted as follows: automated 384-well patch-clamp assays on the Qube® platform (Sophion Biosciences) were used to measure the inhibition of sodium flow through human Nav1.8 and Nav1.5 channels. Whole-cell voltage-clamp recordings were performed in QChips® (Sophion Biosciences) at room temperature. Nav1.8 current measurements on Qube® were obtained as follows: Nav1.8 currents were elicited with a 10 second 1 Hertz (Hz) pulse train from a holding potential of −90 millivolts (mV), delivered to the cells once per minute in the control condition (DMSO only) and after compound addition. The 1 hertz pulse train stimulation consisted of ten test pulses to 10 millivolt (mV) for 20 milliseconds (ms), each of which was followed by a 980 millisecond repolarization to −67 millivolts. At the end of the 10 second pulse train stimulation, a second hyperpolarization step to −100 millivolt (mV) was used to recover Nav1.8 from fast inactivation. The peak currents elicited by the 1st and 10th test pulses were used to determine IC50 values for resting inhibition and inactivated state inhibition. Nav1.5 current measurements on Qube® were obtained as follows: Nav1.5 currents were elicited with a 20 second 3 Hertz pulse train in the control condition (DMSO only) and after compound addition. The pulse train consisted of sixty 20 millisecond test pulses to 0 millivolt from a holding potential of −80 millivolt (mV). The average peak currents elicited by the last 3 test pulses were used to determine IC50 values for Nav1.5 inhibition.
The following buffers were used for the Qube® recordings: External buffer for Nav1.8 Qube® recording: 150 NaCl, 2 CaCl2, 5 KCl, 1 Mg Cl2, 10 HEPES, 12 Dextrose; External buffer for Qube® Nav1.5 recording: 120 N-Methyl-D-Glucamine, 40 NaCl, 1 KCl, 2.7 CaCl2, 5 HEPES, 0.5 MgCl2: and Internal buffer for Qube® recording: 120 CsF, 30 CsCl, 10 EGTA, 5 HEPES, 5 NaF, 2 MgCl2.
For all Qube® experiments offline analysis was used to determine percent inhibition as a function of drug concentration. IC50 values were determined by fitting to the Hill equation.

T1 sequence (Q9Y5Y9 whole entry): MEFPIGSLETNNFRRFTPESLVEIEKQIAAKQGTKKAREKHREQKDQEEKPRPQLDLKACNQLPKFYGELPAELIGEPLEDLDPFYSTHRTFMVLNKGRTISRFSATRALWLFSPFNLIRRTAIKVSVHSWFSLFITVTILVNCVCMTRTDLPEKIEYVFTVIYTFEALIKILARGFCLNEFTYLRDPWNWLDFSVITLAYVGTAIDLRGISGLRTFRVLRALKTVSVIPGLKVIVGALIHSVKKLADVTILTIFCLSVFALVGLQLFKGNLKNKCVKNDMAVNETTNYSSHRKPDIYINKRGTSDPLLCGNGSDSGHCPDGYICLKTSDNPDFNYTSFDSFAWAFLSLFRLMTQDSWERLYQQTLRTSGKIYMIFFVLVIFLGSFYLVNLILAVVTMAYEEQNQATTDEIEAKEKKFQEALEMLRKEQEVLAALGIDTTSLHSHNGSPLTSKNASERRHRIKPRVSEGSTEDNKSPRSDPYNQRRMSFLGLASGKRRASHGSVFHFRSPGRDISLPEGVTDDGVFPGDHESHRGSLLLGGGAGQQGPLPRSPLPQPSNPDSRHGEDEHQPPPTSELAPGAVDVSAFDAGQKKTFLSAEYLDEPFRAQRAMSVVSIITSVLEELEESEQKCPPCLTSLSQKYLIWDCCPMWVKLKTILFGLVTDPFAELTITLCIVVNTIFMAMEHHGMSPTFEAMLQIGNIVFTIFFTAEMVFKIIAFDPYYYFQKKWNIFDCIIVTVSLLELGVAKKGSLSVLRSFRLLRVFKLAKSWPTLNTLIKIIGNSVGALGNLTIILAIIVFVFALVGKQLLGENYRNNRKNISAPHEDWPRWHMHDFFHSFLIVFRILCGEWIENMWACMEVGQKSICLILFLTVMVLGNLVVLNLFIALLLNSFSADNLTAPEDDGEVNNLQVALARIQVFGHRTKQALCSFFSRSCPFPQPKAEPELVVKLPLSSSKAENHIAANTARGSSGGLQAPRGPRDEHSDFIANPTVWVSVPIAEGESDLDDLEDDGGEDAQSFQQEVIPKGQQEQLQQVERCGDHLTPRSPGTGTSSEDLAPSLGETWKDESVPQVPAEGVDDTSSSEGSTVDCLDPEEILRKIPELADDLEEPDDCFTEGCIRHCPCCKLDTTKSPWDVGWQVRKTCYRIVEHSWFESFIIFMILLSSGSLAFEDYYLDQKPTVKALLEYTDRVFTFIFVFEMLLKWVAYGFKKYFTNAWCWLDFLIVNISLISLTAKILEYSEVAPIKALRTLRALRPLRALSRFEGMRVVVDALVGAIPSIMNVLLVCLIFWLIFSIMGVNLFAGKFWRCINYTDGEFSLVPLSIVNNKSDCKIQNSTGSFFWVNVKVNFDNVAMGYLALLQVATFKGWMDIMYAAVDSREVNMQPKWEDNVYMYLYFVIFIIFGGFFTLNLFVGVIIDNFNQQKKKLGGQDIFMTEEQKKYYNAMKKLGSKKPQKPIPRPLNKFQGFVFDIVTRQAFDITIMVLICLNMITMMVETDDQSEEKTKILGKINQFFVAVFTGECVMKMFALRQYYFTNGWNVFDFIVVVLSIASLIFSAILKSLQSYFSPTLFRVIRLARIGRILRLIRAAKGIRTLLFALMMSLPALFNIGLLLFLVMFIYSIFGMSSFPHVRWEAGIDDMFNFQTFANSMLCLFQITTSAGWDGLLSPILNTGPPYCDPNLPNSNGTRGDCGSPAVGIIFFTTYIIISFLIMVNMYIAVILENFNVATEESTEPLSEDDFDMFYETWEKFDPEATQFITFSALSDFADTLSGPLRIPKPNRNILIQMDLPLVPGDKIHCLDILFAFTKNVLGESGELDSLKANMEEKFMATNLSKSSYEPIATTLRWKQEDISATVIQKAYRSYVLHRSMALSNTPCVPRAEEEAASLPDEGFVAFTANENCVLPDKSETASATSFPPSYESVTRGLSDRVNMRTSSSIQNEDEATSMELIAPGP

Compound | IC50 [nM]
NS(=O)(=O)c1cc(NC(=O)c2cc(C(F)(F)F)cnc2N2C[C@H]3C[C@@H](C2)C3(F)F)ccn1 [Example 76, 2-((1R,5S)-6,6-difluoro-3-azabicyclo[3.1.1]heptan-3-yl)-N-(2-sulfamoylpyridin-4-yl)-5-(trifluoromethyl)nicotinamide] | 389
O=C(Nc1cc[nH]c(=O)c1)c1cc(Cl)c(C2CC2)nc1N1CCCC(F)(F)CC1 [Example 27, 5-chloro-6-cyclopropyl-2-(4,4-difluoroazepan-1-yl)-N-(2-oxo-1,2-dihydropyridin-4-yl)nicotinamide] | 31
NS(=O)(=O)c1cc(NC(=O)c2cc(C(F)(F)F)cnc2N2CCCC(Cl)(Cl)CC2)ccn1 [Example 51, 2-(4,4-Dichloroazepan-1-yl)-N-(2-sulfamoylpyridin-4-yl)-5-(trifluoromethyl)nicotinamide] | 6.6
C[C@H]1CN(c2ncc(C(F)(F)F)cc2C(=O)Nc2ccnc(S(N)(=O)=O)c2)CC[C@@H]1O [Example 77, 2-[(3S,4S)-4-hydroxy-3-methyl-1-piperidyl]-N-(2-sulfamoyl-4-pyridyl)-5-(trifluoromethyl)pyridine-3-carboxamide] | 2980
Cc1nc(N2CCC(F)(F)C(C)C2)c(C(=O)Nc2ccnc(S(N)(=O)=O)c2)cc1Cl (single isomer, unassigned) [Example 55, (S or R)-5-chloro-2-(4,4-difluoro-3-methylpiperidin-1-yl)-6-methyl-N-(2-sulfamoylpyridin-4-yl)nicotinamide] | 1.4
NC(=O)c1cncc(NC(=O)c2cc(C(F)(F)F)cnc2N2CCCCCC2)c1 [Example 8, 2-(azepan-1-yl)-N-(5-carbamoylpyridin-3-yl)-5-(trifluoromethyl)nicotinamide] | 2350
NS(=O)(=O)c1cc(NC(=O)c2cc(C(F)(F)F)cnc2N2CC3CC2CC3(F)F)ccn1 (single isomer, unassigned) [Example 71, 2-[(1R,4R or 1S,4S)-5,5-difluoro-2-azabicyclo[2.2.1]heptan-2-yl]-N-(2-sulfamoyl-4-pyridyl)-5-(trifluoromethyl)pyridine-3-carboxamide] | 60

Continued, values first:

IC50 [nM] | Compound
82 | Cc1nc(N2CCC(F)(F)CC2)c(C(=O)Nc2ccnc(S(N)(=O)=O)c2)cc1OCC(F)(F)F [Example 183]
3.3 | CC1CN(c2nc(C(F)(F)F)c(Cl)cc2C(=O)Nc2ccnc(S(N)(=O)=O)c2)CCC1(F)F (single isomer, unassigned) [Example 164, (S or R)-5-chloro-2-(4,4-difluoro-3-methylpiperidin-1-yl)-N-(2-sulfamoylpyridin-4-yl)-6-(trifluoromethyl)nicotinamide]
275 | CC1(C)CN(c2ncc(C(F)(F)F)cc2C(=O)Nc2ccnc(S(N)(=O)=O)c2)CCO1 [Example 88, 2-(2,2-dimethylmorpholin-4-yl)-N-(2-sulfamoyl-4-pyridyl)-5-(trifluoromethyl)pyridine-3-carboxamide]
3880 | N#CC1CCN(c2ncc(C(F)(F)F)cc2C(=O)Nc2ccnc(S(N)(=O)=O)c2)C1 (single isomer, unassigned) [Example 130, (R or S)-2-(3-cyanopyrrolidin-1-yl)-N-(2-sulfamoylpyridin-4-yl)-5-(trifluoromethyl)nicotinamide]
144 | Cc1nc(N2CCOC(C(F)F)C2)c(C(=O)Nc2ccnc(S(N)(=O)=O)c2)cc1Cl (single isomer, unassigned) [Example 125, (R or S)-5-chloro-2-(2-(difluoromethyl)morpholino)-6-methyl-N-(2-sulfamoylpyridin-4-yl)nicotinamide]
494 | CC1(C)CN(c2ncc(C(F)(F)F)cc2C(=O)Nc2ccnc(S(N)(=O)=O)c2)CC(C(F)(F)F)O1 (single isomer, unassigned) [Example 136, (S or R)-2-(2,2-dimethyl-6-(trifluoromethyl)-morpholino)-N-(2-sulfamoylpyridin-4-yl)-5-(trifluoromethyl)nicotinamide]
